In patent US20150246025A1, “2-PHENYL-5-HETEROCYCLYL-TETRAHYDRO-2H-PYRAN-3-AMINE COMPOUNDS FOR USE IN THE TREATMENT OF DIABETES AND ITS ASSOCIATED DISORDERS” (CADILA HEALTHCARE LIMITED, priority 2012, published 2015):

Tests used:
C57BL/6J mice = assay: In vivo antihyperglycaemic/antidiabetic activity (OGTT), acute single dose 120-min time-course; details: Mus musculus, 2 h; male C57BL/6J mice, acute single dose 0,3 mg/kg po, 120-min time-course, n = 6, Mean ± SEM; read-out: In vivo OGTT C57; % Glucose change
Experimental: Acute single dose 120-min time-course experiments were carried out in male C57BL/6J mice, age 8-12 weeks, bred in-house. Animals were housed in groups of 6 animals per cage, for a week, in order to habituate them to vivarium conditions (25±4° C., 60-65% relative humidity, 12: 12 h light: dark cycle, with lights on at 7.30 am). All the animal experiments were carried out according to the internationally valid guidelines following approval by the ‘Zydus Research Center animal ethical committee’.
The in-vivo glucose lowering properties of the test compounds were evaluated in C57BL/6J (mild hyperglycemic) animal models as described below. Two days prior to the study, the animals were randomized and divided into groups (n=6), based upon their fed glucose levels. On the day of experiment, food was withdrawn from all the cages, water was given ad-libitum and were kept for overnight fasting. Vehicle (normal saline)/test compounds were administered orally, on a body weight basis. Soon after the 0 min. blood collection from each animal, the subsequent blood collections were done at 30, 60 and 120 or upto 240 min., via retro-orbital route, under light ether anesthesia (Diabetes Obesity Metabolism, 7, 307, 2005; Diabetes, 52, 751, 2003).
Blood samples were centrifuged and the separated serum was immediately subjected for the glucose estimation. Serum for insulin estimation was stored at −70° C. until used for the insulin estimation. The glucose estimation was carried out with DPEC-GOD/POD method (Ranbaxy Fine Chemicals Limited, Diagnostic division, India), using Spectramax-190, in 96-microwell plate reader (Molecular devices Corporation, Sunnyvale, Calif.). […] The AUC and BCAUC obtained from graphs were analyzed for one way ANOVA, followed by Dunnett's post test, using Graph Pad prism software.

DPP-IV enzyme = biological target: T1, DPP-IV enzyme (Homo sapiens, UniProt P27487); assay: In vitro DPP-IV inhibitory activity using enzymatic (fluorescence-based) assay; format: biochemical; details: soluble human DPP-IV, H-Gly-Pro-AMC 200 μM, pH 7.8, 25° C., 30 min; read-out: % In-vitro DPPIV Inhibition IC50
T1 construct: soluble human proteins (DPP-IV enzyme) produced in a baculovirus expression system; made in house; host or cells: baculovirus expression system (Life Technologies)
T1 sequence (P27487 39-766 limits assumed): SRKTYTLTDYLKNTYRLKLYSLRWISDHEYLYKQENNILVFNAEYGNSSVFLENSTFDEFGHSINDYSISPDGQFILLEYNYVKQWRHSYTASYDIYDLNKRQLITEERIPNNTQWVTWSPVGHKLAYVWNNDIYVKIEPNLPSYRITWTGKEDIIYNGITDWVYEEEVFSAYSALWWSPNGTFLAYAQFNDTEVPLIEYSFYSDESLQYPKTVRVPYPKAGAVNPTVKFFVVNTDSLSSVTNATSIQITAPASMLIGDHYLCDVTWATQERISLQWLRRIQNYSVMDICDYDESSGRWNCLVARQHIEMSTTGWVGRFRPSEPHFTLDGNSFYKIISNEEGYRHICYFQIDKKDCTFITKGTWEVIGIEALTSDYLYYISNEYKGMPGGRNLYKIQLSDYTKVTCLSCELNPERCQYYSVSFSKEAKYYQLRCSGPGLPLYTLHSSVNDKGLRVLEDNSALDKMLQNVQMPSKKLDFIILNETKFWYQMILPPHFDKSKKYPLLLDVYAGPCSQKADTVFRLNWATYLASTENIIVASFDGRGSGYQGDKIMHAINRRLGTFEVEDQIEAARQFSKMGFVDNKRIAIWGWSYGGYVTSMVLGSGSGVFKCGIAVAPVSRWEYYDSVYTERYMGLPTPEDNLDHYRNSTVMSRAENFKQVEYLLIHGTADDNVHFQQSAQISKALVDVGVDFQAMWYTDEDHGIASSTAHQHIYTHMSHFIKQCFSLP
Experimental: In Vitro DPP-IV Inhibitory Activity Using Enzymatic Assay:
In vitro enzyme (DPP-IV) inhibitory activity was determined using fluorescence-based assay (Anal. Biochem., 200, 352, 1992). The Gly-Pro-AMC was used as a substrate (which is cleaved by the enzymes to release the fluorescent AMC) and soluble human proteins (DPP-IV enzyme) produced in a baculovirus expression system (Life Technologies) was used as the enzyme source. The H-Gly-Pro-AMC (200 μM) was incubated with DPP-IV enzyme in the presence of various concentrations (30 & 100 nM) of test compounds. Reaction was carried out at pH 7.8 (HEPES buffer 25 mM containing 1.0% BSA, 140 mM NaCl, 16 mM MgCl2, 2.8% DMSO) in a total volume of 100 μl at 25° C. for 30 min., in the dark. Reaction was terminated with acetic acid (25 μl of 25% solution). Activity (fluorescence) was measured using Spectra Max fluorometer (Molecular Devices, Sunnyvale Calif.) by exciting at 380 nm and emission at 460 nm.

Row | SMILES | IC50 (DPP-IV enzyme) [nM] | change in vivo at 0.3 mg/kg (C57BL/6J mice) [%]
1 | CS(=O)(=O)N1CCC2(CCN([C@H]3CO[C@H](c4cc(F)ccc4F)[C@@H](N)C3)C2)C1 (stereo partly drawn) [Compound 2, (2R,3S,5R)-2-(2,5-difluorophenyl)-5-(7-(methylsulfonyl)-2,7-diazaspiro[4.4]-nonan-2-yl)tetrahydro-2H-pyran-3-amine] | < 10 | -25.7 ± 1.8
2 | N[C@H]1C[C@@H](N2CC3CNCC3C2)CO[C@@H]1c1cc(F)ccc1F (stereo partly drawn) [Compound 4, (2R,3S,5R)-2-(2,5-difluorophenyl)-5-(hexahydropyrrolo[3,4-c]pyrrol-2(1H)-yl)tetrahydro-2H-pyran-3-amine] | < 100 | -16.5 ± 3.8
3 | N[C@H]1C[C@@H](N2CC3CN(S(=O)(=O)C(F)(F)F)CC3C2)CO[C@@H]1c1cc(F)ccc1F (stereo partly drawn) [Compound 5, (2R,3S,5R)-2-(2,5-difluorophenyl)-5-(5-((trifluoromethyl)sulfonyl)hexahydropyrrolo[3,4-c]pyrrol-2(1H)-yl)tetrahydro-2H-pyran-3-amine] | < 100 | -7.6 ± 1.3
4 | N[C@H]1C[C@@H](N2CC3CN(S(=O)(=O)c4ccccc4)CC3C2)CO[C@@H]1c1cc(F)ccc1F (stereo partly drawn) [Compound 6, (2R,3S,5R)-2-(2,5-difluorophenyl)-5-(5-(phenylsulfonyl)hexahydropyrrolo[3,4-c]pyrrol-2(1H)-yl)tetrahydro-2H-pyran-3-amine] | < 100 | -7.3 ± 1.6
5 | CN(C)S(=O)(=O)N1CC2CN([C@H]3CO[C@H](c4cc(F)ccc4F)[C@@H](N)C3)CC2C1 (stereo partly drawn) [Compound 7, 5-((3R,5S,6R)-5-amino-6-(2,5-difluorophenyl)tetrahydro-2H-pyran-3-yl)-N,N-dimethylhexahydropyrrolo[3,4-c]pyrrole-2(1H)-sulfonamide] | < 10 | -7.9 ± 1.2
6 | CN(C)S(=O)(=O)N1CC2=C(CN([C@H]3CO[C@H](c4cc(F)ccc4F)[C@@H](N)C3)C2)C1 [Compound 9, 5-((3R,5S,6R)-5-amino-6-(2,5-difluorophenyl)tetrahydro-2H-pyran-3-yl)-N,N-dimethyl-3,4,5,6-tetrahydropyrrolo[3,4-c]pyrrole-2(1H)-sulfonamide] | < 10 | -34.7 ± 4.4
7 | N[C@H]1C[C@@H](N2CC3C(=O)N(C4CC4)C(=O)C3C2)CO[C@@H]1c1cc(F)ccc1F (stereo partly drawn) [Compound 10, 5-((3R,5S,6R)-5-amino-6-(2,5-difluorophenyl)tetrahydro-2H-pyran-3-yl)-2-cyclopropyltetrahydropyrrolo[3,4-c]pyrrole-1,3(2H,3aH)-dione] | < 100 | -12.5 ± 1.3
8 | N[C@H]1C[C@@H](N2CC3C(=O)N(Cc4ccccc4)C(=O)C3C2)CO[C@@H]1c1cc(F)ccc1F (stereo partly drawn) [Compound 11, 5-((3R,5S,6R)-5-amino-6-(2,5-difluorophenyl)tetrahydro-2H-pyran-3-yl)-2-benzyltetrahydropyrrolo[3,4-c]pyrrole-1,3(2H,3aH)-dione] | < 100 | -25.6 ± 3.2
9 | CS(=O)(=O)N1CCC2CN([C@H]3CO[C@H](c4cc(F)ccc4F)[C@@H](N)C3)CC2C1 (stereo partly drawn) [Compound 12, (2R,3S,5R)-2-(2,5-difluorophenyl)-5-(5-(methylsulfonyl)hexahydro-1H-pyrrolo[3,4-c]pyridin-2(3H)-yl)tetrahydro-2H-pyran-3-amine] | < 100 | -9.8 ± 1.5
10 | CS(=O)(=O)N1CC2CCN([C@H]3CO[C@H](c4cc(F)ccc4F)[C@@H](N)C3)CC2C1 (stereo partly drawn) [Compound 13, (2R,3S,5R)-2-(2,5-difluorophenyl)-5-(2-(methylsulfonyl)hexahydro-1H-pyrrolo[3,4-c]pyridin-5(6H)-yl)tetrahydro-2H-pyran-3-amine] | < 10 | -26.4 ± 1.6
11 | CS(=O)(=O)N1CCC2(CCN([C@H]3CO[C@H](c4cc(F)ccc4F)[C@@H](N)C3)C2)CC1 [Compound 14, (2R,3S,5R)-2-(2,5-difluorophenyl)-5-(8-(methylsulfonyl)-2,8-diazaspiro[4.5]decan-2-yl)tetrahydro-2H-pyran-3-amine] | < 100 | -14.2 ± 3.4
12 | CS(=O)(=O)N1CCC2CN([C@H]3CO[C@H](c4cc(F)ccc4F)[C@@H](N)C3)CC21 (stereo partly drawn) [Compound 15, (2R,3S,5R)-2-(2,5-difluorophenyl)-5-(1-(methylsulfonyl)hexahydropyrrolo[3,4-b]pyrrol-5(1H)-yl)tetrahydro-2H-pyran-3-amine] | < 100 | -42 ± 1.8
13 | CS(=O)(=O)N1CC2CCN([C@H]3CO[C@H](c4cc(F)ccc4F)[C@@H](N)C3)C2C1 (stereo partly drawn) [Compound 16, (2R,3S,5R)-2-(2,5-difluorophenyl)-5-(5-(methylsulfonyl)hexahydropyrrolo[3,4-b]pyrrol-1(2H)-yl)tetrahydro-2H-pyran-3-amine] | < 100 | -29.4 ± 6.8
14 | N[C@H]1C[C@@H](N2CC3CN(Cc4ccccc4)CC3C2)CO[C@@H]1c1cc(F)ccc1F (stereo partly drawn) [Compound 18, (2R,3S,5R)-5-(5-benzylhexahydropyrrolo[3,4-c]pyrrol-2(1H)-yl)-2-(2,5-difluorophenyl)tetrahydro-2H-pyran-3-amine] | < 100 | -12.6 ± 4

Continued, in another order:

Row | IC50 (DPP-IV enzyme) [nM] | SMILES | change in vivo at 0.3 mg/kg (C57BL/6J mice) [%]
15 | < 100 | CS(=O)(=O)N1C[C@H]2CN([C@H]3CO[C@H](c4cc(F)ccc4F)[C@@H](N)C3)C[C@H]21 [Compound 19, (2R,3S,5R)-2-(2,5-difluorophenyl)-5-((1R,5S)-6-(methylsulfonyl)-3,6-diazabicyclo[3.2.0]heptan-3-yl)tetrahydro-2H-pyran-3-amine] | -20.6 ± 3
16 | < 100 | CS(=O)(=O)N1C[C@H]2CN([C@H]3CO[C@H](c4cc(F)ccc4F)[C@@H](N)C3)[C@H]2C1 [Compound 20, (2R,3S,5R)-2-(2,5-difluorophenyl)-5-((1R,5R)-3-(methylsulfonyl)-3,6-diazabicyclo[3.2.0]heptan-6-yl)tetrahydro-2H-pyran-3-amine] | -8.4 ± 1.7
17 | < 100 | CS(=O)(=O)NC1CC2CN([C@H]3CO[C@H](c4cc(F)ccc4F)[C@@H](N)C3)CC2C1 (stereo partly drawn) [Compound 21, N-(2-((3R,5S,6R)-5-amino-6-(2,5-difluorophenyl)tetrahydro-2H-pyran-3-yl)octahydrocyclopenta[c]pyrrol-5-yl)methanesulfonamide] | -15 ± 4
18 | < 30 | N[C@H]1C[C@@H](N2CC3=C(CN(C(=O)C4CC4)C3)C2)CO[C@@H]1c1cc(F)ccc1F [Compound 22, (2R,3S,5R)-5-(5-(cyclopropanecarbonyl)-5,6-dihydropyrrolo[3,4-c]pyrrol-2(1H,3H,4H)-yl)-2-(2,5-difluorophenyl)tetrahydro-2H-pyran-3-amine] | -25.1 ± 2
19 | < 30 | N[C@H]1C[C@@H](N2CC3=C(CN(C(=O)c4ccccc4)C3)C2)CO[C@@H]1c1cc(F)ccc1F [Compound 23, (5-((3R,5S,6R)-5-amino-6-(2,5-difluorophenyl)tetrahydro-2H-pyran-3-yl)-5,6-dihydropyrrolo[3,4-c]pyrrol-2(1H,3H,4H)-yl)(phenyl)methanone] | -22 ± 1.2
20 | < 30 | CC(C)C(=O)N1CC2=C(C1)CN([C@H]1CO[C@H](c3cc(F)ccc3F)[C@@H](N)C1)C2 [Compound 24, 1-(5-((3R,5S,6R)-5-amino-6-(2,5-difluorophenyl)tetrahydro-2H-pyran-3-yl)-5,6-dihydropyrrolo[3,4-c]pyrrol-2(1H,3H,4H)-yl)-2-methylpropan-1-one] | -18.9 ± 5.7
21 | < 10 | Cc1ccc(S(=O)(=O)N=S(C)(=O)N2CC3=C(CN([C@H]4CO[C@H](c5cc(F)ccc5F)[C@@H](N)C4)C3)C2)cc1 (stereo partly drawn) [Compound 49, (2R,3S,5R)-2-(2,5-difluorophenyl)-5-(5-(N-(4-methylbenzenesulfonyl)-S-methylsulfonimidoyl)-5,6-dihydropyrrolo[3,4-c]pyrrol-2(1H,3H,4H)-yl)tetrahydro-2H-pyran-3-amine] | –
